Test results from patent US10045983B2, “Heteroaryl pyridone and aza-pyrodine compounds” (Genentech, Inc., priority 2011, dated 2018).

Test: CD69 Whole Blood Assay (CD69 Hu Blood FACS)
Type: cell-based, human
Settings: Lymphocyte; human whole blood, anti-IgM activated B lymphocytes, FACS; IC70; Table 2 (unit inferred); read-out: CD69 Hu Blood FACS (IC70)
Procedure, shortened: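 Human whole blood stimulated by crosslinking surface IgM with goat F(ab′)2 anti-human IgM; inhibition of CD69 expression on B lymphocytes measured by flow cytometry.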

Row | Structure (SMILES) | IC70 [nM]
1 | COCCN1CCn2nc(Nc3cc(-c4ccnc(N5CCn6c(cc7c6CC(C)(C)C7)C5=O)c4CO)nn(C)c3=O)cc2C1 [Example 305, 3-[3-(hydroxymethyl)-4-[5-[[5-(2-methoxyethyl)-6,7-dihydro-4H-pyrazolo[1,5-a]pyrazin-2-yl]amino]-1-methyl-6-oxo-pyridazin-3-yl]-2-pyridyl]-7,7-dimethyl-1,2,6,8-tetrahydrocyclopenta[3,4]pyrrolo[3,5-b]pyrazin-4-one] | 83.2
2 | COc1ccc(Nc2cc(-c3ccnc(N4CCn5c(cc6c5CC(C)(C)C6)C4=O)c3CO)cn(C)c2=O)nn1 [Example 306, 3-[3-(hydroxymethyl)-4-[5-[(6-methoxypyridazin-3-yl)amino]-1-methyl-6-oxo-3-pyridyl]-2-pyridyl]-7,7-dimethyl-1,2,6,8-tetrahydrocyclopenta[3,4]pyrrolo[3,5-b]pyrazin-4-one] | 602
3 | COCCN1CCn2nc(Nc3cc(-c4ccnc(N5CCc6c(sc7c6CC(C)(C)C7)C5=O)c4CO)cn(C)c3=O)cc2C1 [Example 308, 3-[3-(hydroxymethyl)-4-[5-[[5-(2-methoxyethyl)-6,7-dihydro-4H-pyrazolo[1,5-a]pyrazin-2-yl]amino]-1-methyl-6-oxo-3-pyridyl]-2-pyridyl]-7,7-dimethyl-1,2,6,8-tetrahydrocyclopenta[3,4]thieno[1,3-c]pyridin-4-one] | 54.6
4 | COCCCN1CCn2nc(Nc3cc(-c4ccnc(N5CCn6c(cc7c6CC(C)(C)C7)C5=O)c4CO)cn(C)c3=O)cc2C1 [Example 309, 3-[3-(hydroxymethyl)-4-[5-[[5-(3-methoxypropyl)-6,7-dihydro-4H-pyrazolo[1,5-a]pyrazin-2-yl]amino]-1-methyl-6-oxo-3-pyridyl]-2-pyridyl]-7,7-dimethyl-1,2,6,8-tetrahydrocyclopenta[3,4]pyrrolo[3,5-b]pyrazin-4-one] | 39.8
5 | Cc1cc(Nc2cc(-c3ccnc(N4CCn5c(cc6c5CC(C)(C)C6)C4=O)c3CO)cn(C)c2=O)ns1 [Example 310, 3-[3-(hydroxymethyl)-4-[1-methyl-5-[(5-methylisothiazol-3-yl)amino]-6-oxo-3-pyridyl]-2-pyridyl]-7,7-dimethyl-1,2,6,8-tetrahydrocyclopenta[3,4]pyrrolo[3,5-b]pyrazin-4-one] | 119
6 | Cn1cc(-c2ccnc(N3CCn4c(cc5c4CC(C)(C)C5)C3=O)c2CO)cc(Nc2cc(C3CC3)on2)c1=O [Example 311, 3-[4-[5-[(5-cyclopropylisoxazol-3-yl)amino]-1-methyl-6-oxo-3-pyridyl]-3-(hydroxymethyl)-2-pyridyl]-7,7-dimethyl-1,2,6,8-tetrahydrocyclopenta[3,4]pyrrolo[3,5-b]pyrazin-4-one] | 158
7 | Cc1cc(Nc2cc(-c3ccnc(N4CCn5c(cc6c5CC(C)(C)C6)C4=O)c3CO)cn(C)c2=O)nn1C1COC1 [Example 312, 3-[3-(hydroxymethyl)-4-[1-methyl-5-[[5-methyl-1-(oxetan-3-yl)pyrazol-3-yl]amino]-6-oxo-3-pyridyl]-2-pyridyl]-7,7-dimethyl-1,2,6,8-tetrahydrocyclopenta[3,4]pyrrolo[3,5-b]pyrazin-4-one] | 5600
8 | CN1Cc2cc(Nc3cc(-c4ccnc(N5CCn6c(cc7c6CC(C)(C)C7)C5=O)c4CO)cn(C)c3=O)nn2CC1=O [Example 313, 3-[3-(hydroxymethyl)-4-[1-methyl-5-[(5-methyl-6-oxo-4,7-dihydropyrazolo[1,5-a]pyrazin-2-yl)amino]-6-oxo-3-pyridyl]-2-pyridyl]-7,7-dimethyl-1,2,6,8-tetrahydrocyclopenta[3,4]pyrrolo[3,5-b]pyrazin-4-one] | 19.1
9 | Cn1cc(-c2ccnc(N3CCn4c(cc5c4CC(C)(C)C5)C3=O)c2CO)cc(Nc2ccc(N3CC(O)C3)cn2)c1=O [Example 314, 3-[4-[5-[[5-(3-hydroxyazetidin-1-yl)-2-pyridyl]amino]-1-methyl-6-oxo-3-pyridyl]-3-(hydroxymethyl)-2-pyridyl]-7,7-dimethyl-1,2,6,8-tetrahydrocyclopenta[3,4]pyrrolo[3,5-b]pyrazin-4-one] | 44.6
10 | Cn1nc(Nc2cc(-c3ccnc(N4CCn5c(cc6c5CC(C)(C)C6)C4=O)c3CO)cn(C)c2=O)cc1C(=O)N1CCCC1 [Example 315, 3-[3-(hydroxymethyl)-4-[1-methyl-5-[[1-methyl-5-(pyrrolidine-1-carbonyl)pyrazol-3-yl]amino]-6-oxo-3-pyridyl]-2-pyridyl]-7,7-dimethyl-1,2,6,8-tetrahydrocyclopenta[3,4]pyrrolo[3,5-b]pyrazin-4-one] | 15
11 | COCc1cc(Nc2cc(-c3ccnc(N4CCn5c(cc6c5CC(C)(C)C6)C4=O)c3CO)cn(C)c2=O)nn1C [Example 316, 3-[3-(hydroxymethyl)-4-[5-[[5-(methoxymethyl)-1-methyl-pyrazol-3-yl]amino]-1-methyl-6-oxo-3-pyridyl]-2-pyridyl]-7,7-dimethyl-1,2,6,8-tetrahydrocyclopenta[3,4]pyrrolo[3,5-b]pyrazin-4-one] | 20.2
12 | CN1Cc2cc(Nc3cc(-c4ccnc(N5CCc6c(sc7c6CC(C)(C)C7)C5=O)c4CO)cn(C)c3=O)nn2CC1=O [Example 317, 3-[3-(hydroxymethyl)-4-[1-methyl-5-[(5-methyl-6-oxo-4,7-dihydropyrazolo[1,5-a]pyrazin-2-yl)amino]-6-oxo-3-pyridyl]-2-pyridyl]-7,7-dimethyl-1,2,6,8-tetrahydrocyclopenta[3,4]thieno[1,3-c]pyridin-4-one] | 58.6
13 | C[C@@H]1c2cc(Nc3cc(-c4ccnc(N5CCn6c(cc7c6CC(C)(C)C7)C5=O)c4CO)cn(C)c3=O)nn2CCN1C [Example 318, (R)-2-(5-((4,5-dimethyl-4,5,6,7-tetrahydropyrazolo[1,5-a]pyrazin-2-yl)amino)-3′-(hydroxymethyl)-1-methyl-6-oxo-1,6-dihydro-[3,4′-bipyridin]-2′-yl)-7,7-dimethyl-2,3,4,6,7,8-hexahydro-1H-cyclopenta[4,5]pyrrolo[1,2-a]pyrazin-1-one] | 108
14 | C[C@H]1c2cc(Nc3cc(-c4ccnc(N5CCn6c(cc7c6CC(C)(C)C7)C5=O)c4CO)cn(C)c3=O)nn2CCN1C [Example 319, (S)-2-(5-((4,5-dimethyl-4,5,6,7-tetrahydropyrazolo[1,5-a]pyrazin-2-yl)amino)-3′-(hydroxymethyl)-1-methyl-6-oxo-1,6-dihydro-[3,4′-bipyridin]-2′-yl)-7,7-dimethyl-2,3,4,6,7,8-hexahydro-1H-cyclopenta[4,5]pyrrolo[1,2-a]pyrazin-1-one] | 16.7
15 | C[C@@H]1COC[C@H](C)N1C(=O)c1ccc(Nc2cc(-c3ccnc(N4CCn5c(cc6c5CC(C)(C)C6)C4=O)c3CO)cn(C)c2=O)nc1 [Example 320, 3-[4-[5-[[5-[(3S,5R)-3,5-dimethylmorpholine-4-carbonyl]-2-pyridyl]amino]-1-methyl-6-oxo-3-pyridyl]-3-(hydroxymethyl)-2-pyridyl]-7,7-dimethyl-1,2,6,8-tetrahydrocyclopenta[3,4]pyrrolo[3,5-b]pyrazin-4-one] | 46.8
16 | C[C@@H]1COC[C@H](C)N1C(=O)c1ccc(Nc2cc(-c3ccnc(N4CCn5c(cc6c5CC(C)(C)C6)C4=O)c3CO)nn(C)c2=O)nc1 [Example 321, 3-[4-[5-[[5-[(3 S,5R)-3,5-dimethylmorpholine-4-carbonyl]-2-pyridyl]amino]-1-methyl-6-oxo-pyridazin-3-yl]-3-(hydroxymethyl)-2-pyridyl]-7,7-dimethyl-1,2,6,8-tetrahydrocyclopenta[3,4]pyrrolo[3,5-b]pyrazin-4-one] | 112
17 | C[C@@H]1COC[C@H](C)N1C(=O)c1ccc(Nc2cc(-c3ccnc(N4CCn5c(cc6c5CCCC6)C4=O)c3CO)cn(C)c2=O)nc1 [Example 322, 2-[4-[5-[[5-[(3S,5R)-3,5-dimethylmorpholine-4-carbonyl]-2-pyridyl]amino]-1-methyl-6-oxo-3-pyridyl]-3-(hydroxymethyl)-2-pyridyl]-3,4,6,7,8,9-hexahydropyrazino[1,2-a]indol-1-one] | 79.6
18 | COC1CN(c2ccc(Nc3cc(-c4ccnc(N5CCn6c(cc7c6CC(C)(C)C7)C5=O)c4CO)cn(C)c3=O)nc2)C1 [Example 323, 3-[3-(hydroxymethyl)-4-[5-[[5-(3-methoxyazetidin-1-yl)-2-pyridyl]amino]-1-methyl-6-oxo-3-pyridyl]-2-pyridyl]-7,7-dimethyl-1,2,6,8-tetrahydrocyclopenta[3,4]pyrrolo[3,5-b]pyrazin-4-one] | 279
19 | C[C@H]1COC[C@H](C)N1C(=O)c1ccc(Nc2cc(-c3ccnc(N4CCn5c(cc6c5CC(C)(C)C6)C4=O)c3CO)nn(C)c2=O)nc1 [Example 324, 3-[4-[5-[[5-[(3 S,5 S)-3,5-dimethylmorpholine-4-carbonyl]-2-pyridyl]amino]-1-methyl-6-oxo-pyridazin-3-yl]-3-(hydroxymethyl)-2-pyridyl]-7,7-dimethyl-1,2,6,8-tetrahydrocyclopenta[3,4]pyrrolo[3,5-b]pyrazin-4-one] | 85.8
20 | Cc1nn(C)c2cnc(Nc3cc(-c4ccnc(N5CCn6c(cc7c6CC(C)(C)C7)C5=O)c4CO)cn(C)c3=O)cc12 [Example 325, 3-[4-[5-[(1,3-dimethylpyrazolo[3,4-c]pyridin-5-yl)amino]-1-methyl-6-oxo-3-pyridyl]-3-(hydroxymethyl)-2-pyridyl]-7,7-dimethyl-1,2,6,8-tetrahydrocyclopenta[3,4]pyrrolo[3,5-b]pyrazin-4-one] | 1400
21 | Cc1c2cc(Nc3cc(-c4ccnc(N5CCn6c(cc7c6CC(C)(C)C7)C5=O)c4CO)cn(C)c3=O)ncc2nn1C [Example 326, 3-[4-[5-[(2,3-dimethylpyrazolo[3,4-c]pyridin-5-yl)amino]-1-methyl-6-oxo-3-pyridyl]-3-(hydroxymethyl)-2-pyridyl]-7,7-dimethyl-1,2,6,8-tetrahydrocyclopenta[3,4]pyrrolo[3,5-b]pyrazin-4-one] | 1400
22 | COCCN1CCn2nc(Nc3cc(-c4ccnc(N5CCn6c(cc7c6CC(C)(C)C7)C5=O)c4CO)c(C)n(C)c3=O)cc2C1 [Example 327, 3-[3-(hydroxymethyl)-4-[5-[[5-(2-methoxyethyl)-6,7-dihydro-4H-pyrazolo[1,5-a]pyrazin-2-yl]amino]-1,2-dimethyl-6-oxo-3-pyridyl]-2-pyridyl]-7,7-dimethyl-1,2,6,8-tetrahydrocyclopenta[3,4]pyrrolo[3,5-b]pyrazin-4-one] | 2200
